{"source": "paper PMC10176470", "about": "“Engaging a Non-catalytic Cysteine Residue Drives Potent and Selective Inhibition of Caspase-6” (Journal of the American Chemical Society, 2023)", "key": {"[1]": {"molecular_target": "proteins of HEK293T cells transiently overexpressing caspase-6 (Homo sapiens, UniProt Q92841)", "sequence (Q92841 whole entry)": "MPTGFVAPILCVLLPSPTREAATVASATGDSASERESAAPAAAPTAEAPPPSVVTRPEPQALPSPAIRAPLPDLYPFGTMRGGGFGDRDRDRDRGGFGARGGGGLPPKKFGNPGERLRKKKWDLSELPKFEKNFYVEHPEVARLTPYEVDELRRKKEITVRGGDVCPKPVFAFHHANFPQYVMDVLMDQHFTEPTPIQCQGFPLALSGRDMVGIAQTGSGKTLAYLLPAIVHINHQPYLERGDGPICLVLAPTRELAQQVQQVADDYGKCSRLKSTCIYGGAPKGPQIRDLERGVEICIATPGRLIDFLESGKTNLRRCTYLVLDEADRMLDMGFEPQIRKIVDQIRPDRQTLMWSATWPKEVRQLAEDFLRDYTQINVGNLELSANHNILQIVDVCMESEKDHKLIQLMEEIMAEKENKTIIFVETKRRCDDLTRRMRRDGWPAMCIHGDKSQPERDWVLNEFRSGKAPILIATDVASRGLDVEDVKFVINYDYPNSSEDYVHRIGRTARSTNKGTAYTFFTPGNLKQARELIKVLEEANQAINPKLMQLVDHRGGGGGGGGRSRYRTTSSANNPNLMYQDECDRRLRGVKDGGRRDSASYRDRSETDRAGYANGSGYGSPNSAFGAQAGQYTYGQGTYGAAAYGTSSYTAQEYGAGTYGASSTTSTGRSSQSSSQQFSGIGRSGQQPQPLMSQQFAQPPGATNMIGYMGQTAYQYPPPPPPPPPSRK", "assay_type": "cell-based", "conditions": "exp_ref Probe; protein DDX17 (Q92841); analysis C6"}, "[2]": {"molecular_target": "proteins of HEK293T cells transiently overexpressing caspase-6 (Homo sapiens, UniProt P22626)", "assay_type": "cell-based", "conditions": "exp_ref Probe; protein HNRNPA2B1 (P22626); analysis C6"}, "[3]": {"molecular_target": "proteins of HEK293T cells transiently overexpressing caspase-6 (Homo sapiens, UniProt P18124)", "assay_type": "cell-based", "conditions": "Probe; protein RPL7 P18124"}, "[4]": {"molecular_target": "proteins of HEK293T cells transiently overexpressing caspase-6 (Homo sapiens, UniProt P63104)", "assay_type": "cell-based", "conditions": "exp_ref Probe; protein YWHAZ (P63104); analysis C6"}, "[5]": {"molecular_target": "proteins of HEK293T cells transiently overexpressing caspase-6 (Homo sapiens, UniProt P04406)", "sequence (P04406 whole entry)": "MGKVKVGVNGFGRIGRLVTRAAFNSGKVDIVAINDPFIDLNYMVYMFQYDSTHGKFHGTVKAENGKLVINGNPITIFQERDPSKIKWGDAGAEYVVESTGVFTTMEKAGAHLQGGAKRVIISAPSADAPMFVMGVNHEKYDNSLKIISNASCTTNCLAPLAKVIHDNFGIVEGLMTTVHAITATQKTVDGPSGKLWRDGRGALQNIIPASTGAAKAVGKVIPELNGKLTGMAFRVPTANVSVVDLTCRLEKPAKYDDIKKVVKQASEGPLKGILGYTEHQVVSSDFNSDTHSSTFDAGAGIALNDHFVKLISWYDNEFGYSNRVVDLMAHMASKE", "assay_type": "cell-based", "conditions": "exp_ref Probe; protein GAPDH (P04406); analysis C6"}, "[6]": {"molecular_target": "proteins of HEK293T cells transiently overexpressing caspase-6 (Homo sapiens, UniProt O75390)", "sequence (O75390 28-466)": "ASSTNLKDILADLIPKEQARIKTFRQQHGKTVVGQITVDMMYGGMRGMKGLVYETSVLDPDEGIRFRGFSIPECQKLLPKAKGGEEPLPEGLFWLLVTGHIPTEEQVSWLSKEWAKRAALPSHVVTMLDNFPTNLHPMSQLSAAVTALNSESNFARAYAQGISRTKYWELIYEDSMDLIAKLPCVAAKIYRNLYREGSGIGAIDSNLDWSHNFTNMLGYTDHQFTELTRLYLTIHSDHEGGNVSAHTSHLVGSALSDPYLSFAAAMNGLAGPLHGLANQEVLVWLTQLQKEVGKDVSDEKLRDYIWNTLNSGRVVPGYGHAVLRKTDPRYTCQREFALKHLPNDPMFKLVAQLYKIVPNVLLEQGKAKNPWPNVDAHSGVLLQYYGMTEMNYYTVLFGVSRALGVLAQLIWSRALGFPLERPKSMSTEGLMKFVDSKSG", "assay_type": "cell-based", "conditions": "exp_ref Probe; protein CS (O75390); analysis C6"}, "[7]": {"molecular_target": "proteins of HEK293T cells transiently overexpressing caspase-6 (Homo sapiens, UniProt P04264)", "sequence (P04264 whole entry)": "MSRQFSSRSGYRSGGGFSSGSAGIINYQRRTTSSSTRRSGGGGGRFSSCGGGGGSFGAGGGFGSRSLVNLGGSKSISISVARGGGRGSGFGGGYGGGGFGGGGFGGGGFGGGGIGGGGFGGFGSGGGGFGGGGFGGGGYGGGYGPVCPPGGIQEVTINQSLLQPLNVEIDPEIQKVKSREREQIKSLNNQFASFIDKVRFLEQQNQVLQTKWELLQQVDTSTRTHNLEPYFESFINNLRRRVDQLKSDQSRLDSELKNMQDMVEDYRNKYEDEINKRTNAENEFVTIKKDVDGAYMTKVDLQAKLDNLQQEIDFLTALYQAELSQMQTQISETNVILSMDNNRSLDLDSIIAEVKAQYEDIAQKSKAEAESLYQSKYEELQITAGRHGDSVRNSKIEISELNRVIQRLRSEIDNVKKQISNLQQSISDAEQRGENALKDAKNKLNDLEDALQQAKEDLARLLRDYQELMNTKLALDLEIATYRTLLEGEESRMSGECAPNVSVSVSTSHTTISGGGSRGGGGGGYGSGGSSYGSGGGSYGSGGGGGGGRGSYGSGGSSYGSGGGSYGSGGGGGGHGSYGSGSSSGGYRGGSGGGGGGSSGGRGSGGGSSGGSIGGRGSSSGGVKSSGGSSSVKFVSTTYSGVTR", "assay_type": "cell-based", "conditions": "Probe; protein KRT1 P04264"}, "[8]": {"molecular_target": "proteins of HEK293T cells transiently overexpressing caspase-6 (Homo sapiens, UniProt P25786)", "sequence (P25786 whole entry)": "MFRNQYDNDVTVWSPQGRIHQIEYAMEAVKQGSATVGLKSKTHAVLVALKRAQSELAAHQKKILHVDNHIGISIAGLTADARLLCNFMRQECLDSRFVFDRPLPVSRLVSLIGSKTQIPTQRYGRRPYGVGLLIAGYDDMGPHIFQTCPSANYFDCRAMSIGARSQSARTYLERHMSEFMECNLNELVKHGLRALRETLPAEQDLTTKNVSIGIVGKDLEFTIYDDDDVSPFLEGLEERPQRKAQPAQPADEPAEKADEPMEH", "assay_type": "cell-based", "conditions": "Probe; protein PSMA1 P25786"}, "[9]": {"molecular_target": "proteins of HEK293T cells transiently overexpressing caspase-6 (Homo sapiens, UniProt P09651)", "sequence (P09651 whole entry)": "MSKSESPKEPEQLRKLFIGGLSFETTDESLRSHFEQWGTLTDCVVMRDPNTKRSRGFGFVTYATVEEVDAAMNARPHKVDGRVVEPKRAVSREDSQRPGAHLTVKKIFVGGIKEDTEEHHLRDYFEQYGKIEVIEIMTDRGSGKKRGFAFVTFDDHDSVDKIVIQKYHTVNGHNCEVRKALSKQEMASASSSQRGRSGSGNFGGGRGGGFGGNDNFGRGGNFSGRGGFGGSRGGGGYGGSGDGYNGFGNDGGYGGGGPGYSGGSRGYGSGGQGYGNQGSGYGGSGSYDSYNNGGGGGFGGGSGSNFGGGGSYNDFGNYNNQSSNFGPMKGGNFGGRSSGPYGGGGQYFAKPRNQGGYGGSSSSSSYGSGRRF", "assay_type": "cell-based", "conditions": "protein HNRNPA1 (P09651)"}, "[10]": {"molecular_target": "proteins of HEK293T cells transiently overexpressing caspase-6 (Homo sapiens, UniProt P11142)", "sequence (P11142 whole entry)": "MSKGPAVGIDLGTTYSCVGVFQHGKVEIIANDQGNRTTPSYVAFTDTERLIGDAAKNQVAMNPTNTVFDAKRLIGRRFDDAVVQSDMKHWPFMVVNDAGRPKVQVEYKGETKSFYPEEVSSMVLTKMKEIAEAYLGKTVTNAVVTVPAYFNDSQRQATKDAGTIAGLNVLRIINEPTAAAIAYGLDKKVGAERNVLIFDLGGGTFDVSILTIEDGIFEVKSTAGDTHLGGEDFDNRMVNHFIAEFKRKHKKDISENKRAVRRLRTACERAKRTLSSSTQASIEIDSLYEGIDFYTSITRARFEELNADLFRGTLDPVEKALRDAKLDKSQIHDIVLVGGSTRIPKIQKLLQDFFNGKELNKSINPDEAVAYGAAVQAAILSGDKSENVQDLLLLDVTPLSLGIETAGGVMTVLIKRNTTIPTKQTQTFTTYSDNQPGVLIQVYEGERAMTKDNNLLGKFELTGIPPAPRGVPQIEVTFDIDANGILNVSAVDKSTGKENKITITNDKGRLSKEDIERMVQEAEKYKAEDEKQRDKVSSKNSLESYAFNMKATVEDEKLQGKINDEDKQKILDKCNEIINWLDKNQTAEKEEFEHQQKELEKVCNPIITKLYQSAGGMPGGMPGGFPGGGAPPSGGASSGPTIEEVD", "assay_type": "cell-based", "conditions": "protein HSPA8 (P11142)"}, "[11]": {"molecular_target": "T1, proteins of HEK293T cells transiently overexpressing caspase-6 (Homo sapiens, UniProt P29401)", "T1 sequence (P29401 1-623)": "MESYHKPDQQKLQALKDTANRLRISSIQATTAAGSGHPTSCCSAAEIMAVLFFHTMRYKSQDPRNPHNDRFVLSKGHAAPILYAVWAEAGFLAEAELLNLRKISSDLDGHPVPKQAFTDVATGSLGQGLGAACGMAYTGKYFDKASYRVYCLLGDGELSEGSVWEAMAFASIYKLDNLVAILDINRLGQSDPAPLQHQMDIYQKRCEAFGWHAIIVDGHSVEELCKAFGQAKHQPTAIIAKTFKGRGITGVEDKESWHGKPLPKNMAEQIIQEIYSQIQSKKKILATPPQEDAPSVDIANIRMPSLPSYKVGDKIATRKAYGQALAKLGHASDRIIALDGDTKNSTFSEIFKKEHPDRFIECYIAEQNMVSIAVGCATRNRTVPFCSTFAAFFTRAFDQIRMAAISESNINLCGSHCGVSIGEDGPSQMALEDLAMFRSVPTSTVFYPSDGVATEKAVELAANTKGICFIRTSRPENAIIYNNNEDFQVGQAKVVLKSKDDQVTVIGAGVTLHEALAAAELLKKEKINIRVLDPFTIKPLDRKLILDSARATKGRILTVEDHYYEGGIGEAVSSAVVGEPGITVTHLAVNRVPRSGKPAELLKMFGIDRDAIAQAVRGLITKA", "assay_type": "cell-based"}, "[12]": {"molecular_target": "proteins of HEK293T cells transiently overexpressing caspase-6 (Homo sapiens, UniProt P42704)", "assay_type": "cell-based", "conditions": "exp_ref Probe; protein LRPPRC (P42704); analysis C6"}, "[13]": {"molecular_target": "proteins of HEK293T cells transiently overexpressing caspase-6 (Homo sapiens, UniProt Q9H307)", "assay_type": "cell-based", "conditions": "exp_ref Probe; protein PNN (Q9H307); analysis C6"}, "[14]": {"molecular_target": "proteins of HEK293T cells transiently overexpressing caspase-6 (Homo sapiens, UniProt P62241)", "assay_type": "cell-based", "conditions": "exp_ref Probe; protein RPS8 (P62241); analysis C6"}, "[15]": {"molecular_target": "proteins of HEK293T cells transiently overexpressing caspase-6 (Homo sapiens, UniProt P08238)", "sequence (P08238 whole entry)": "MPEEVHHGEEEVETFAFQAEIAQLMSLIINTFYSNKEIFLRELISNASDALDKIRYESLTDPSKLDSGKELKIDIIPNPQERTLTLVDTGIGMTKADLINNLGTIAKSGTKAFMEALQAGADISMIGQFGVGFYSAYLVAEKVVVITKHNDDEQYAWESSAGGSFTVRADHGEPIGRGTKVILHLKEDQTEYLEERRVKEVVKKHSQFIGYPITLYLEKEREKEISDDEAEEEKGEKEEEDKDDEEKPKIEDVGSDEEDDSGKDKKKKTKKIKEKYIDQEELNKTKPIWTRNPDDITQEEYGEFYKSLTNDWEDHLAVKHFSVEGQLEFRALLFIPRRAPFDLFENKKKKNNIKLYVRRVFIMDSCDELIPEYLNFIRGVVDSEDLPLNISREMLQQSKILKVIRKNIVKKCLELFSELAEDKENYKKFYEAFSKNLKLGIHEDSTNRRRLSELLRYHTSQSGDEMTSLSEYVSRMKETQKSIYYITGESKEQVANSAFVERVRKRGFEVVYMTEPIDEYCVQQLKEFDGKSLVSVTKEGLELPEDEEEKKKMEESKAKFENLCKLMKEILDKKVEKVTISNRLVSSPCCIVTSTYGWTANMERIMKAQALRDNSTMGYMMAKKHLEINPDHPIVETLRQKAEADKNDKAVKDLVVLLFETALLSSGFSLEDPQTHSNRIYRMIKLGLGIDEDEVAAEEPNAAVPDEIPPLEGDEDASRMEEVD", "assay_type": "cell-based", "conditions": "exp_ref Probe; protein HSP90AB1 (P08238); analysis C6"}, "[16]": {"molecular_target": "proteins of HEK293T cells transiently overexpressing caspase-6 (Homo sapiens, UniProt P49023)", "sequence (P49023 whole entry)": "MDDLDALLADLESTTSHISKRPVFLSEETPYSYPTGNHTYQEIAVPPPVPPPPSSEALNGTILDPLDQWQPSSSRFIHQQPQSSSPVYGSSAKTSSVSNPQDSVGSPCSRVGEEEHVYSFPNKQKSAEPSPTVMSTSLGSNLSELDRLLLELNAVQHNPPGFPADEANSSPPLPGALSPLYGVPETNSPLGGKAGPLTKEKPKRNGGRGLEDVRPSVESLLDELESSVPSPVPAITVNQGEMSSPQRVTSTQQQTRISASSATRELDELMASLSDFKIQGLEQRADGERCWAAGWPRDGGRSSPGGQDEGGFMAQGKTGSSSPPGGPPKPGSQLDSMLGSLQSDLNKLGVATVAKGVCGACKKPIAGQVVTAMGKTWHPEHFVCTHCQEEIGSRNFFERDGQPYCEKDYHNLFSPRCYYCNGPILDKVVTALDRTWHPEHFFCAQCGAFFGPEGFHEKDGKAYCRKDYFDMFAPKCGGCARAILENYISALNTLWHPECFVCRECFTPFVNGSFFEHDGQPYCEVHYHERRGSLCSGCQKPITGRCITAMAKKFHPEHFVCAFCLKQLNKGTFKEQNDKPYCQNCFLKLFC", "assay_type": "cell-based", "conditions": "Probe; protein PXN P49023"}, "[17]": {"molecular_target": "proteins of HEK293T cells transiently overexpressing caspase-6 (Homo sapiens, UniProt P49736)", "assay_type": "cell-based", "conditions": "Probe; protein MCM2 P49736"}, "[18]": {"molecular_target": "proteins of HEK293T cells transiently overexpressing caspase-6 (Homo sapiens, UniProt Q92688)", "sequence (Q92688 whole entry)": "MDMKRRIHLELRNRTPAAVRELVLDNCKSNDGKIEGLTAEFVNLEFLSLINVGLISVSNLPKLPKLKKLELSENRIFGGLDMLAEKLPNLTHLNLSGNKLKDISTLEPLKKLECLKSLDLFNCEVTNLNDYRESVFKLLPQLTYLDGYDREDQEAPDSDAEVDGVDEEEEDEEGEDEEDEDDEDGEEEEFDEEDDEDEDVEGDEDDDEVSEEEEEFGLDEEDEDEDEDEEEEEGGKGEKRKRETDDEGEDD", "assay_type": "cell-based", "conditions": "protein ANP32B (Q92688)"}, "[19]": {"molecular_target": "proteins of HEK293T cells transiently overexpressing caspase-6 (Homo sapiens, UniProt O75643)", "assay_type": "cell-based", "conditions": "exp_ref Probe; protein SNRNP200 (O75643); analysis C6"}, "[20]": {"molecular_target": "proteins of HEK293T cells transiently overexpressing caspase-6 (Homo sapiens, UniProt P54578)", "assay_type": "cell-based", "conditions": "Probe; protein USP14 P54578"}, "[21]": {"molecular_target": "proteins of HEK293T cells transiently overexpressing caspase-6 (Homo sapiens, UniProt Q7KZF4)", "assay_type": "cell-based", "conditions": "exp_ref Probe; protein SND1 (Q7KZF4); analysis C6"}, "human caspases C1–C10": {"system": "human caspases C1–C10", "assay": "Caspase selectivity assays (Eurofins/Panlabs), 10 µM 3a", "assay_type": "biochemical", "conditions": "3a at 10 μM"}}, "data": [{"smiles": "C#CCOc1ccc([C@@H]2C[C@@H](C(=O)Nc3ccc(OC(F)(F)F)cc3)CN(S(=O)(=O)C=C)C2)cc1", "note": "(relative stereo) [13-t]", "values": [{"measurement": "enrich.exp.med", "setting": "[1]", "value": 0.3365}, {"measurement": "enrich.exp.med", "setting": "[2]", "value": -0.1215}, {"measurement": "enrich.exp.med", "setting": "[3]", "value": -0.45}, {"measurement": "enrich.exp.med", "setting": "[4]", "value": 0.8069}, {"measurement": "enrich.exp.med", "setting": "[5]", "value": 0.4718}, {"measurement": "enrich.exp.med", "setting": "[6]", "value": -0.1126}, {"measurement": "enrich.exp.med", "setting": "[7]", "value": -8.014}, {"measurement": "enrich.exp.med", "setting": "[8]", "value": -2.151}, {"measurement": "enrich.exp.med", "setting": "[9]; exp_ref Probe, analysis C6", "value": 0.3216}, {"measurement": "enrich.exp.med.lin", "setting": "[9]", "value": 1.2497}, {"measurement": "enrich.exp.med.log2", "setting": "[9]", "value": 0.3216}, {"measurement": "enrich.exp.med", "setting": "[10]; exp_ref Probe, analysis C6", "value": 0.3873}, {"measurement": "enrich.exp.med.lin", "setting": "[10]", "value": 1.308}, {"measurement": "enrich.exp.med.log2", "setting": "[10]", "value": 0.3873}, {"measurement": "enrich.exp.med", "setting": "[11]; Probe, protein TKT P29401", "value": -0.5472}, {"measurement": "enrich.exp.med.lin", "setting": "[11]; protein TKT (P29401)", "value": 0.6843}, {"measurement": "enrich.exp.med.log2", "setting": "[11]; protein TKT (P29401)", "value": -0.5472}, {"measurement": "enrich.exp.med", "setting": "[12]", "value": 0.2022}, {"measurement": "enrich.exp.med", "setting": "[13]", "value": 0.5676}, {"measurement": "enrich.exp.med", "setting": "[14]", "value": 0.3889}, {"measurement": "enrich.exp.med", "setting": "[15]", "value": 0.3736}, {"measurement": "enrich.exp.med", "setting": "[16]", "value": -1.7768}, {"measurement": "enrich.exp.med", "setting": "[17]", "value": -1.091}, {"measurement": "enrich.exp.med.lin", "setting": "[18]", "value": 4.217}, {"measurement": "enrich.exp.med.log2", "setting": "[18]", "value": 2.0761}, {"measurement": "enrich.exp.med", "setting": "[18]; exp_ref Probe, analysis C6", "value": 2.0761}, {"measurement": "enrich.exp.med", "setting": "[19]", "value": -0.0557}, {"measurement": "enrich.exp.med", "setting": "[20]", "value": -0.5802}, {"measurement": "enrich.exp.med", "setting": "[21]", "value": 0.1516}]}, {"smiles": "C=CS(=O)(=O)N1C[C@H](C(=O)Nc2ccc(OC(F)(F)F)cc2)C[C@@H](c2ccccc2)C1", "note": "[3a]", "values": [{"measurement": "effect on the other caspase isoforms (in words)", "setting": "human caspases C1–C10", "value": "little, if any, effect"}]}]}
